Patent US8030354B2, “Substituted biphenyl GPR40 modulators” (Amgen Inc., priority 2007, dated 2011)

Experiments:
GPR40 [1] = molecular target: T1, GPR40 (Homo sapiens, UniProt O14842); assay: Cell-based aequorin assay (CHO cells stably expressing GPR40 and aequorin); design: expressed in transfected cells; host or cells: CHO cells stably transfected with GPR40 and aequorin; conditions: activation of human GPR40, CHO cells, 0.01% HSA
In short: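 CHO cells stably co-expressing GPR40 and aequorin, loaded with coelenterazine (1 ug/mL, 2 h, room temperature) in H/HBSS with 20 mM Hepes and 0.01% fatty acid-free HSA. Serially diluted compounds added; luminescence recorded over 20 s. EC50 from dose-response of maximum relative light units.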

GPR40 [2] = molecular target: T1, GPR40; assay: Inositol phosphate accumulation assay (A9_GPR40 cells); type: cell-based; design: expressed in transfected cells; host or cells: CHO cells stably transfected with GPR40 and aequorin; conditions: inositol phosphate assay, A9_GPR40 cells, 1 hour; read-out: IP3 EC50
Method: Briefly, the Aequorin assays were performed on doubly stable CHO cells expressing GPR40 and Aequorin DNA. […] The luminescence was recorded over a period of 20 seconds with a Microlumat luminometer (Berthold). […] The inositol phosphate assay was performed on an A9 cell line stably transfected with GPR40 (A9_GPR40). The cells were incubated with different concentrations of compounds and [^3H] inositol accumulation was measured after 1 hour.
An A9 cell line stably transfected with GPR40 (A9_GPR40) was used in IP accumulation assays. A9_GPR40 cells were plated in 96-well plates containing 20,000 cells/well in DMEM containing 10% FBS. After the cells attached to the well surface, the media was replaced with inositol free DMEM containing 10% dialyzed FBS and 1 μCi, mL ^3H-inositol and incubated for 16 hours. Compounds were diluted in HBSS/10 mM LiCl containing a desired amount of HSA and added directly to cells. Following 1 hour incubation at 37° C., the media was replaced with 100 μL of 20 mM formic acid to quench the reaction. 50 μL of the extract was then added to 100 μL of SPA beads, incubated overnight, and measured on a TopCount the following day.

T1 sequence (O14842 whole entry): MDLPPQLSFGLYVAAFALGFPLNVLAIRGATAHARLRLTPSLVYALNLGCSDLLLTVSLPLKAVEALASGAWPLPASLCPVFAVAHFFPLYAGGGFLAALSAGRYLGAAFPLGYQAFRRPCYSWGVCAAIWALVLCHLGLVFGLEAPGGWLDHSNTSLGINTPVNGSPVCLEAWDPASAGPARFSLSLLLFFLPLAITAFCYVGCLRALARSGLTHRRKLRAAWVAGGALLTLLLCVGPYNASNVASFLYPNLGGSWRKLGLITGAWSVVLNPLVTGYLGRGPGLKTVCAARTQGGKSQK

SMILES | EC50 (GPR40 [1]) | EC50 (GPR40 [2]) | Aequorin EC50 (GPR40 [1])
COc1ccc(F)c(-c2ccc(COc3cccc([C@H](C)CC(=O)O)c3)cc2C23CC4CC(CC(C4)C2)C3)c1 (single isomer, unassigned) [Example 64.16, (3R)-3-(3-(((2′-Fluoro-5′-(methyloxy)-2-tricyclo[3.3.1.1˜3,7˜]dec-1-yl-1,1′-biphenyl-4-yl)methyl)oxy)phenyl)butanoic acid or (3S)-3-(3-(((2′-fluoro-5′-(methyloxy)-2-tricyclo[3.3.1.1˜3,7˜]dec-1-yl-1,1′-biphenyl-4-yl)methyl)oxy)phenyl)butanoic acid] | 100 to 1000 nM | 10 to 100 nM | –
COc1ccc(F)c(-c2ccc(COc3cccc(C(C)CC(=O)O)c3)cc2C2CCCCCC2)c1 (single isomer, unassigned) [Example 64.17, (3R)-3-(3-(((2-Cycloheptyl-2′-fluoro-5′-(methyloxy)-1,1′-biphenyl-4-yl)methyl)oxy)phenyl)butanoic acid or (3S)-3-(3-(((2-cycloheptyl-2′-fluoro-5′-(methyloxy)-1,1′-biphenyl-4-yl)methyl)oxy)phenyl)butanoic acid] | 100 to 1000 nM | 10 to 100 nM | –
COc1ccc(F)c(-c2ccc(COc3cccc(C(C)CC(=O)O)c3)cc2C2(C)CC2)c1 (single isomer, unassigned) [Example 64.18, (3R)-3-(3-(((2′-Fluoro-2-(1-methylcyclopropyl)-5′-(methyloxy)-1,1′-biphenyl-4-yl)methyl)oxy)phenyl)butanoic acid or (3S)-3-(3-(((2′-fluoro-2-(1-methylcyclopropyl)-5′-(methyloxy)-1,1′-biphenyl-4-yl)methyl)oxy)phenyl)butanoic acid] | 100 to 1000 nM | 100 to 1000 nM | –
COc1ccc(F)c(-c2ccc(COc3cccc(C(C)CC(=O)O)c3)cc2C2=CCCC2)c1 (single isomer, unassigned) [Example 64.19, (3R)-3-(3-(((2-(1-Cyclopenten-1-yl)-2′-fluoro-5′-(methyloxy)-1,1′-biphenyl-4-yl)methyl)oxy)phenyl)butanoic acid or (3S)-3-(3-(((2-(1-cyclopenten-1-yl)-2′-fluoro-5′-(methyloxy)-1,1′-biphenyl-4-yl)methyl)oxy)phenyl)butanoic acid] | 100 to 1000 nM | 100 to 1000 nM | –
COc1cccc(-c2ccc(COc3cccc(C(C)CC(=O)O)c3)cc2C2=CCCC2(C)C)c1 (single isomer, unassigned) [Example 64.20, (3R)-3-(3-(((2-(5,5-Dimethyl-1-cyclopenten-1-yl)-3′-(methyloxy)-1,1′-biphenyl-4-yl)methyl)oxy)phenyl)butanoic acid or (3S)-3-(3-(((2-(5,5-dimethyl-1-cyclopenten-1-yl)-3′-(methyloxy)-1,1′-biphenyl-4-yl)methyl)oxy)phenyl)butanoic acid] | 100 to 1000 nM | 10 to 100 nM | –
COc1ccc(F)c(-c2ccc(COc3cccc(C(C)CC(=O)O)c3)cc2C2=CCCCC2)c1 (single isomer, unassigned) [Example 64.21, (3R)-3-(3-(((2-(1-Cyclohexen-1-yl)-2′-fluoro-5′-(methyloxy)-1,1′-biphenyl-4-yl)methyl)oxy)phenyl)butanoic acid or (3S)-3-(3-(((2-(1-cyclohexen-1-yl)-2′-fluoro-5′-(methyloxy)-1,1′-biphenyl-4-yl)methyl)oxy)phenyl)butanoic acid] | 100 to 1000 nM | 10 to 100 nM | –
COc1ccc(F)c(-c2ccc(COc3cccc(C(C)CC(=O)O)c3)cc2C2CCCC2(C)C)c1 (single isomer, unassigned) [Example 64.22, (3R)-3-(3-(((2-(2,2-Dimethylcyclopentyl)-2′-fluoro-5′-(methyloxy)-1,1′-biphenyl-4-yl)methyl)oxy)phenyl)butanoic acid or (3S)-3-(3-(((2-(2,2-dimethylcyclopentyl)-2′-fluoro-5′-(methyloxy)-1,1′-biphenyl-4-yl)methyl)oxy)phenyl)butanoic acid] | 100 to 1000 nM | 10 to 100 nM | –
COc1ccc(F)c(-c2ccc(COc3cccc([C@@H](CC(=O)O)C4CC4)c3)cc2[C@@H]2CCCCC2(C)C)c1 (single isomer, unassigned) [Example 66.22] | 10 to 100 nM | < 10 nM | –

Continued, values first:

EC50 (GPR40 [1]) | EC50 (GPR40 [2]) | Aequorin EC50 (GPR40 [1]) | SMILES
100 to 1000 nM | 10 to 100 nM | – | CCC(CC(=O)O)c1cccc(OCc2ccc(-c3cc(OC)ccc3F)c(C3=CCCC3(C)C)c2)c1 (single isomer, unassigned) [Example 65.1, (3R)-3-(3-(((2-(5,5-Dimethyl-1-cyclopenten-1-yl)-2′-fluoro-5′-(methyloxy)-1,1′-biphenyl-4-yl)methyl)oxy)phenyl)pentanoic acid or (3S)-3-(3-(((2-(5,5-dimethyl-1-cyclopenten-1-yl)-2′-fluoro-5′-(methyloxy)-1,1′-biphenyl-4-yl)methyl)oxy)phenyl)pentanoic acid]
100 to 1000 nM | 10 to 100 nM | – | COc1ccc(F)c(-c2ccc(COc3cccc(C(CC(=O)O)C4CC4)c3)cc2C2CCCCCC2)c1 (single isomer, unassigned) [Example 66.2, (3S)-3-(3-(((2-Cycloheptyl-2′-fluoro-5′-(methyloxy)-1,1′-biphenyl-4-yl)methyl)oxy)phenyl)-3-cyclopropylpropanoic acid or (3R)-3-(3-(((2-cycloheptyl-2′-fluoro-5′-(methyloxy)-1,1′-biphenyl-4-yl)methyl)oxy)phenyl)-3-cyclopropylpropanoic acid]
– | < 10 nM | +++/ ++++ | COc1cccc(-c2ccc(COc3cccc(C(CC(=O)O)C4CC4)c3)cc2C2=CCCC2(C)C)c1 (single isomer, unassigned) [Example 66.3, (3S)-3-Cyclopropyl-3-(3-(((2-(5,5-dimethyl-1-cyclopenten-1-yl)-3′-(methyloxy)-1,1′-biphenyl-4-yl)methyl)oxy)phenyl)propanoic acid or (3R)-3-cyclopropyl-3-(3-(((2-(5,5-dimethyl-1-cyclopenten-1-yl)-3′-(methyloxy)-1,1′-biphenyl-4-yl)methyl)oxy)phenyl)propanoic acid]
100 to 1000 nM | 10 to 100 nM | – | COc1cccc(-c2ccc(COc3cccc(C(CC(=O)O)C4CC4)c3)cc2C2CCCCCC2)c1 (single isomer, unassigned) [Example 66.9, (3S)-3-(3-(((2-Cycloheptyl-3′-(methyloxy)-1,1′-biphenyl-4-yl)methyl)oxy)phenyl)-3-cyclopropylpropanoic acid or (3R)-3-(3-(((2-cycloheptyl-3′-(methyloxy)-1,1′-biphenyl-4-yl)methyl)oxy)phenyl)-3-cyclopropylpropanoic acid]
100 to 1000 nM | < 10 nM | – | COc1ccc(F)c(-c2ccc(COc3cccc(C(CC(=O)O)C4CC4)c3)cc2C2=CCCCC2(C)C)c1 (single isomer, unassigned) [Example 66.10, (3S)-3-Cyclopropyl-3-(3-(((2-(6,6-dimethyl-1-cyclohexen-1-yl)-2′-fluoro-5′-(methyloxy)-1,1′-biphenyl-4-yl)methyl)oxy)phenyl)propanoic acid or (3R)-3-cyclopropyl-3-(3-(((2-(6,6-dimethyl-1-cyclohexen-1-yl)-2′-fluoro-5′-(methyloxy)-1,1′-biphenyl-4-yl)methyl)oxy)phenyl)propanoic acid]
100 to 1000 nM | 10 to 100 nM | – | CC1(C)CCC[C@@H]1c1cc(COc2cccc([C@@H](CC(=O)O)C3CC3)c2)ccc1-c1cccc(OC(F)F)c1 (single isomer, unassigned) [Example 66.11]
100 to 1000 nM | 10 to 100 nM | – | COc1cc(-c2ccc(COc3cccc([C@@H](CC(=O)O)C4CC4)c3)cc2C2=CCCC2(C)C)c(F)cn1 (single isomer, unassigned) [Example 66.12, (3S)-3-(3-(3-(5,5-Dimethylcyclopent-1-enyl)-4-(5-fluoro-2-methoxypyridin-4-yl)benzyloxy)phenyl)-3-cyclopropylpropanoic acid or (3R)-3-(3-(3-(5,5-dimethylcyclopent-1-enyl)-4-(5-fluoro-2-methoxypyridin-4-yl)benzyloxy)phenyl)-3-cyclopropylpropanoic acid]
100 to 1000 nM | < 10 nM | – | COc1ccc(F)c(-c2ccc(COc3cccc([C@@H](CC(=O)O)C4CC4)c3)cc2[C@@H](OC)C(C)(C)C)c1 (single isomer, unassigned) [Example 66.13]
10 to 100 nM | < 10 nM | – | COc1ccc(F)c(-c2ccc(COc3cccc(C(CC(=O)O)C4CC4)c3)cc2C(C)C(C)(C)C)c1 (single isomer, unassigned) [Example 66.19]
100 to 1000 nM | 10 to 100 nM | – | COc1ccc(F)c(-c2ccc(COc3cccc([C@@H](CC(=O)O)C4CC4)c3)cc2CC(C)C)c1 (single isomer, unassigned) [Example 66.20, (3S)-3-Cyclopropyl-3-(3-(((2′-fluoro-5′-(methyloxy)-2-(2-methylpropyl)-1,1′-biphenyl-4-yl)methyl)oxy)phenyl)propanoic acid or (3R)-3-cyclopropyl-3-(3-(((2′-fluoro-5′-(methyloxy)-2-(2-methylpropyl)-1,1′-biphenyl-4-yl)methyl)oxy)phenyl)propanoic acid]
